Source: patent publication US20240148679A1, “METHODS AND COMPOSITIONS RELATED TO TREATMENT AND PREVENTION OF CANCER BY INHIBITION OF DGAT1 AND DGAT2” (Ohio State Innovation Foundation, priority 2019, published 2024)

Experiments:
Format in all cases: cell-based, human
[1] = system: HepG2 cells; assay: Lipid droplet and TG levels in liver cancer cell line HepG2
Description: (A) RT-qPCR analysis of DGAT1 vs. DGAT2 mRNA expression in GBM cells (U251 and GBM30) and in liver cancer cell line (HepG2). The results are shown as mean±SD (n=3). Statistical significance was determined by a paired Student's t-test. *P<0.01; n.s., not significant. (B) Representative fluorescence imaging of LDs stained with BODIPY 493/503 (green) (upper panels) and TLC analysis of TG levels (lower panels) in GBM and liver cancer cells after treatments with the DGAT1 inhibitor A-922500 (20 μg/ml) or DGAT2 inhibitor PF-06424439 ([…]) alone or in combination for 24 hr. Nuclei were stained with Hoechst 33342 (blue). Scale bar, 10 m. LDs were quantified by the ImageJ software in more than 30 cells in each treatment group (mean±SEM). TG levels were quantified by the ImageJ software and normalized to the untreated control group (mean±SD, n=3). Statistical significance was determined by one-way ANOVA. * P<0.001; #P<0.05. (C) Percentage of dead GBM or liver cancer cells after treatment with DGAT1 or DGAT2 inhibitors alone or in combination for 3 days as in panel B. Live and dead cells were counted after trypan blue staining (mean SD, n=3). Statistical significance was determined by one-way ANOVA. * P<0.0001. (D) Western blot analysis of DGAT1 expression in membrane extracts from GBM and liver cancer cells after infection with shRNA-expressing lentivirus against DGAT1 for 48 hr. PDIA1, an ER protein marker, was used as an internal control. (E) RT-qPCR analysis of DGAT2 mRNA expression in GBM and liver cancer cells after infection with shRNA-expressing lentivirus against DGAT2 for 48 hr. The expression level was normalized to control cells and shown as mean±SD (n=3). Statistical significance was determined by one-way ANOVA. * P<0.01. (F) Representative fluorescence images of LDs stained with BODIPY 493/503 (upper panels) and TLC analysis of TG levels (lower panels) in GBM and liver cancer cells after lentivirus-mediated shRNA knockdown of DGAT1 or DGAT2 alone or in combination for 48 hr. Scale bar, 10 m. Quantification and significance analysis of LDs and TG levels in different groups were the same as in panel B. * P<0.001; #P<0.05. (G) Percentage of dead GBM or liver cancer cells after lentivirus-mediated shRNA knockdown of DGAT1 or DGAT2 alone or in combination for 4 days. Cell death percentage and significance were determined as in panel c (mean±SD, n=3). *P<0.0001; #P<0.001. […]
For live cells, lipid droplets were stained with BODIPY 493/503 ([…]) (Cat #D-3922; Life Technologies) for 30 min and visualized by confocal microscopy (Carl Zeiss LSM510 Meta, 63×/1.4 NA oil). More than 30 cells were analyzed and LD numbers were quantified with the Image J software (NIH) in a 3D stack, as previously described in Geng 2016. […]

[2] = system: HepG2 cells; assay: HepG2 cell death, trypan blue counting; conditions: DGAT1 and DGAT2 inhibitors alone or in combination, 3 days
Description: (A) RT-qPCR analysis of DGAT1 vs. DGAT2 mRNA expression in GBM cells (U251 and GBM30) and in liver cancer cell line (HepG2). The results are shown as mean±SD (n=3). Statistical significance was determined by a paired Student's t-test. *P<0.01; n.s., not significant. (B) Representative fluorescence imaging of LDs stained with BODIPY 493/503 (green) (upper panels) and TLC analysis of TG levels (lower panels) in GBM and liver cancer cells after treatments with the DGAT1 inhibitor A-922500 (20 μg/ml) or DGAT2 inhibitor PF-06424439 ([…]) alone or in combination for 24 hr. Nuclei were stained with Hoechst 33342 (blue). Scale bar, 10 m. LDs were quantified by the ImageJ software in more than 30 cells in each treatment group (mean±SEM). TG levels were quantified by the ImageJ software and normalized to the untreated control group (mean±SD, n=3). Statistical significance was determined by one-way ANOVA. * P<0.001; #P<0.05. (C) Percentage of dead GBM or liver cancer cells after treatment with DGAT1 or DGAT2 inhibitors alone or in combination for 3 days as in panel B. Live and dead cells were counted after trypan blue staining (mean SD, n=3). Statistical significance was determined by one-way ANOVA. * P<0.0001. […] Statistical significance was determined by one-way ANOVA. * P<0.01. […] Cell death percentage and significance were determined as in panel c (mean±SD, n=3). *P<0.0001; #P<0.001. […]

[3] = system: GBM cells; assay: Lipid droplet (BODIPY 493/503) number and TG (TLC) levels in GBM cells; conditions: 24 hours; for LDs/TG levels: concurrently inhibiting DGAT1 and DGAT2 (A-922500 + PF-06424439), vs DGAT1 inhibition alone; for number of LDs and levels of TG: single inhibitor, 20 μg/ml, all examined GBM cells
Description: (A) RT-qPCR analysis of DGAT1 vs. DGAT2 mRNA expression in GBM cells (U251 and GBM30) and in liver cancer cell line (HepG2). The results are shown as mean±SD (n=3). Statistical significance was determined by a paired Student's t-test. *P<0.01; n.s., not significant. (B) Representative fluorescence imaging of LDs stained with BODIPY 493/503 (green) (upper panels) and TLC analysis of TG levels (lower panels) in GBM and liver cancer cells after treatments with the DGAT1 inhibitor A-922500 (20 μg/ml) or DGAT2 inhibitor PF-06424439 ([…]) alone or in combination for 24 hr. Nuclei were stained with Hoechst 33342 (blue). Scale bar, 10 m. LDs were quantified by the ImageJ software in more than 30 cells in each treatment group (mean±SEM). TG levels were quantified by the ImageJ software and normalized to the untreated control group (mean±SD, n=3). Statistical significance was determined by one-way ANOVA. * P<0.001; #P<0.05. (C) Percentage of dead GBM or liver cancer cells after treatment with DGAT1 or DGAT2 inhibitors alone or in combination for 3 days as in panel B. Live and dead cells were counted after trypan blue staining (mean SD, n=3). Statistical significance was determined by one-way ANOVA. * P<0.0001. (D) Western blot analysis of DGAT1 expression in membrane extracts from GBM and liver cancer cells after infection with shRNA-expressing lentivirus against DGAT1 for 48 hr. […] Statistical significance was determined by one-way ANOVA. * P<0.01. (F) Representative fluorescence images of LDs stained with BODIPY 493/503 (upper panels) and TLC analysis of TG levels (lower panels) in GBM and liver cancer cells after lentivirus-mediated shRNA knockdown of DGAT1 or DGAT2 alone or in combination for 48 hr. […] Quantification and significance analysis of LDs and TG levels in different groups were the same as in panel B. * P<0.001; #P<0.05. […] Cell death percentage and significance were determined as in panel c (mean±SD, n=3). *P<0.0001; #P<0.001.
(A) RT-qPCR analysis of DGAT1 vs. DGAT2 mRNA levels in different types of cancer cell lines using 3 pairs of different primers. […] Statistical significance was determined by Student's t-test. *P<0.01. (B) Representative fluorescence imaging of LDs stained with BODIPY 493/503 (green) (upper panels) and TLC analysis of TG levels (lower panels) in GBM cells after treatment with the DGAT1 inhibitor A-922500 (20 μg/ml) or DGAT2 inhibitor PF-06424439 (20 μg/ml) for 24 hr. […] LDs were quantified by the ImageJ software in more than 30 cells in each treatment group (mean±SEM). TG levels were quantified by the ImageJ software and normalized to control group (mean±SD, n=3). Statistical significance was determined by one-way ANOVA. *P<0.001; #P<0.05. […] Statistical significance was determined by one-way ANOVA. *P<0.001. […]

[4] = inhibition of both enzymes (A-922500 + PF-06424439)
[5] = single inhibitor, 20 μg/ml, 24 hr

SMILES | LDs/TG levels [1, 4] | LDs/TG levels [1, 5] | cell death of HepG2 cells [2] | LDs/TG levels [3] | number of LDs and levels of TG [3]
O=C(Nc1ccccc1)Nc1ccc(-c2ccc(C(=O)[C@@H]3CCC[C@H]3C(=O)O)cc2)cc1 [A-922500] | strongly reduce | only slightly decreased | inhibition of both enzymes was required for cell death | did not result in further reduction | dramatically reduced the number of LDs
CS(=O)(=O)O.O=C([C@@H]1CCCN(c2ccc3[nH]c(C4(n5cc(Cl)cn5)CC4)nc3n2)C1)N1CCCC1 [PF-06424439] | strongly reduce | only slightly decreased | inhibition of both enzymes was required for cell death | did not result in further reduction | minor reduction
